Each block holds one molecule with its values, some of them ahead of it.
Assays:
Type in all cases: binding
[1] = system: RGD-endostatin interaction; assay: Colloid colour-change drug screen for endostatin mimics via RGD/endostatin interaction (Example 8); conditions: 5 μL candidate drug at 2.9 mg/ml in DMSO; 4.75 ul of 0.1 mg/mL endostatin; room temperature, about 20 minutes
Method: In yet another aspect of the invention, a high throughput drug screening assay is described that identifies endostatin mimics is described. Histidine-tagged peptides containing two tandem GRGDS motifs are immobilized, from a phosphate buffered saline solution, onto gold nanoparticles (called colloids) that have been derivatized with NTA-Ni-SAMs that capture histidine-tagged species. Endostatin, which is a dimer in its functional form, is added to the colloidal solution. Dimeric endostatin presents two binding sites that recognize GRGDS motif peptides. The binding of dimeric endostatin to two peptides attached to two different colloids, draws the colloids close together and causes the color of the gold colloid solution to change from pink to blue. Recall that colloidal gold appears pink when the particles are dispersed in a homogeneous solution, but the solution turns blue when the particles are aggregated, see FIG. 5. Drug candidates are added to the colloid-immobilized GRGDS motif peptides and endostatin solution. When a drug candidate effectively interrupts the endostatin—GRGDS motif peptide interaction, the solution remains pink. Recall that the drug candidates are monomeric and therefore, even if they bind to the GRGDS peptides, they cannot bring two colloids together, which would cause the solution color to change from the inherent pink, to blue, see FIG. 7.
60 uM NTA colloids presenting a His-tagged peptide containing […] RGD motifs (GRGDSGRGDS) were prepared by incubating 1 mL of colloids with 200 ul 100 uM His-RGD for ten minutes, pelleting the colloids to remove excess unbound peptide, and resuspending the colloids in PBS. Negative control colloids were prepared by substituting a random His-tagged peptide in place of the RGD peptide. 30 μL RGD-colloids (or random peptide-colloids for negative controls) were added to each well of a 96-well plate along with 60 ul PBS per well. 5 μL of a candidate drug at 2.9 mg/ml in DMSO was added to each well of the plate. Candidate drugs including L-histidine, D-cycloserine, quisqualic acid and suramin were assessed. (See FIGS. 1-4). DMSO was added in place of a drug to each of the positive and negative controls. 4.75 ul of 0.1 mg/mL endostatin was added to each well. The plate was incubated at room temperature and observed for color change. After about 20 minutes, the positive controls changed color from pink to blue as the endostatin bound to the RGD peptide. […] Drugs identified in this manner that bound to the RGD motif and inhibited binding of endostatin may be endostatin mimics and could be used as synthetic replacements of endostatin.

[2] = Biotin-streptavidin interaction with gold colloids (Example 1)
Method: (§1) Gold colloids were prepared using a mixture of 10 μM biotin thiol, 10 μM NTA thiol, and 580 μM C11 thiol. Control colloids were prepared using 20 μM NTA thiol and 580 μM C11 thiol for a total thiol concentration of 600 μM. After deposition, the colloids were heat cycled in 400 μM EG3 thiol, and charged with nickel sulfate. A streptavidin stock solution (1 mg/mL) was prepared in 10 mM sodium phosphate buffer, 100 mM sodium chloride, pH 7.4 (buffer) To detect the biotin-streptavidin interaction, 60 μL buffer, 10 μL streptavidin, and 30 μL colloids, were mixed in a well of a 96-well plate. The plate was incubated at room temperature and observed for color change. At the three highest concentrations of streptavidin (0.1 mg/mL, 0.01 mg/mL, 0.001 mg/mL) the colloids presenting biotin turned blue (wells A1, A2, A3, FIG. 5). At lower concentrations of streptavidin, the wells containing biotin colloids remained pink (wells A4, A5, A6, A7). A similar experiment was performed using colloids presenting only the NTA group (wells B1-B7).
(§2) FIG. 5 is a digital photo of a colorimetric nanoparticle experiment in which gold colloids were derivatized with either biotin-SAMs (top row) or NTA-Ni-SAMs (bottom row). Streptavidin which has four binding sites for biotin, and thus will cross-link biotin-presenting colloids, was added free in solution. […]

[3] = Biotin-streptavidin interaction, control colloids (Example 1); conditions: same streptavidin concentrations; wells B1-B7
Method: as §1, §2

[4] = target: T1, endostatin—GRGDS interaction (Homo sapiens, UniProt P39060); assay: Vitronectin competition in gold colloid colour-change assay (Example 6)
T1 construct: purchased Calbiochem 324746
T1 sequence (P39060 1572-1754 limits assumed): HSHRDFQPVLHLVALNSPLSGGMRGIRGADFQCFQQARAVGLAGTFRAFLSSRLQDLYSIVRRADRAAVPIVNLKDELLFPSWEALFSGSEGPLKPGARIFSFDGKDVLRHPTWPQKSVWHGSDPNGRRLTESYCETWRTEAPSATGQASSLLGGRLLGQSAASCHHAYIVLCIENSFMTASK
Method: 40 μM NTA gold colloids were prepared which presented the His-tagged RGD peptide (Sequence ID No.1, see Table 1). These colloids were mixed with endostatin (0.1 mg /mL) and turned blue, indicating binding of endostatin to the GRGDS peptide (A1, A2, FIG. 6). Control colloids presenting an irrelevant FLR-peptide (Sequence ID #2, see table 1) remained pink (wells A3, A4). At the highest concentration of vitronectin (0.1 mg /ml), the endostatin—GRGDS interaction is disrupted, and the well remains pink (B1). At lower concentrations of vitronectin, the endostatin—GRDS interaction is not affected and the wells turn blue (B2-B5).

Molecule: N[C@@H](Cc1c[nH]cn1)C(=O)O [L-histidine]
disruption of RGD-endostatin interaction (well remains pink) [1]: disrupted the RGD-endostatin interaction

Molecule: N[C@@H](Cn1oc(=O)[nH]c1=O)C(=O)O [quisqualic acid]
disruption of RGD-endostatin interaction (well remains pink) [1]: disrupted the RGD-endostatin interaction

Molecule: Cc1ccc(C(=O)Nc2ccc(S(=O)(=O)O)c3cc(S(=O)(=O)O)cc(S(=O)(=O)O)c23)cc1NC(=O)c1cccc(NC(=O)Nc2cccc(C(=O)Nc3cc(C(=O)Nc4ccc(S(=O)(=O)O)c5cc(S(=O)(=O)O)cc(S(=O)(=O)O)c45)ccc3C)c2)c1 [suramin]
disruption of RGD-endostatin interaction (well remains pink) [1]: disrupted the RGD-endostatin interaction

Molecule: streptavidin: Streptavidin which has four binding sites for biotin, added free in solution
colour of biotin colloids ([2]; lower concentrations of streptavidin, wells A4-A7): remained pink | colour of biotin colloids ([2]; three highest concentrations of streptavidin (0.1 mg/mL, 0.01 mg/mL, 0.001 mg/mL), wells A1-A3): turned blue | colour of NTA-only control colloids [3]: remained pink

effect on endostatin—GRGDS interaction ([4]; highest concentration of vitronectin (0.1 mg/ml), well B1): disrupted | effect on endostatin—GRGDS interaction ([4]; lower concentrations of vitronectin, wells B2-B5): not affected
Molecule: vitronectin: full-length vitronectin, a cell adhesion molecule containing the GRGDS motif

Molecule: N[C@@H]1CONC1=O [D-cycloserine]
disruption of RGD-endostatin interaction (well remains pink) [1]: disrupted the RGD-endostatin interaction
